Assay results taken from patent publication US20150105252A1, “SUBSTITUTED PYRAZOLES AS HERBICIDES” (E I DU PONT DE NEMOURS AND COMPANY, priority 2013, published 2015).

Experiments:
[1] = tested on: barnyardgrass; test: Test A preemergence; type: in vivo, Echinochloa crus-galli; settings: Preemergence, 1000 g ai/ha; 0 to 100 scale, 0 no effect, 100 complete control
Summary of the method: (§1)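 Growth medium: loam soil blended with sand. Preemergence treatment used a directed soil spray right after planting; postemergence treatment targeted seedlings at one to two leaves (2–10 cm height). Response was judged by eye relative to untreated plants about 10 days later on a 0–100 control scale.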

[2] = tested on: crabgrass, large; test: Test A preemergence; type: in vivo, Digitaria sanguinalis; settings: Preemergence, 1000 g ai/ha; 0 to 100 scale, 0 no effect, 100 complete control
Summary of the method: as §1

[3] = tested on: foxtail, giant; test: Test A preemergence; type: in vivo, Setaria faberii; settings: Preemergence, 1000 g ai/ha; 0 to 100 scale, 0 no effect, 100 complete control
Summary of the method: as §1

[4] = tested on: morningglory; test: Test A preemergence; type: in vivo, Ipomoea spp.; settings: Preemergence, 1000 g ai/ha; 0 to 100 scale, 0 no effect, 100 complete control
Summary of the method: as §1

[5] = tested on: pigweed; test: Test A preemergence; type: in vivo, Amaranthus retroflexus; settings: Preemergence, 1000 g ai/ha; 0 to 100 scale, 0 no effect, 100 complete control
Summary of the method: as §1

[6] = tested on: velvetleaf; test: Test A preemergence; type: in vivo, Abutilon theophrasti; settings: Preemergence, 1000 g ai/ha; 0 to 100 scale, 0 no effect, 100 complete control
Excerpt: (§2) Seeds of plant species selected from barnyardgrass (Echinochloa crus-galli), kochia (Kochia scoparia), common ragweed (Ambrosia elation), Italian ryegrass (Lolium multiflorum), crabgrass, large (large crabgrass, Digitaria sanguinalis), foxtail, giant (giant foxtail, Setaria faberii), morningglory (Ipomoea spp.), pigweed (redroot pigweed, Amaranthus retroflexus), velvetleaf (Abutilon theophrasti), wheat (Triticum aestivum), and corn (Zea mays) were planted into a blend of loam soil and sand and treated preemergence with a directed soil spray using test chemicals formulated in a non-phytotoxic solvent mixture which included a surfactant.
(§3) At the same time, plants selected from these crop and weed species and also blackgrass (Alopecurus myosuroides), and galium (catchweed bedstraw, Galium aparine) were planted in pots containing the same blend of loam soil and sand and treated with postemergence applications of test chemicals formulated in the same manner. Plants ranged in height from 2 to 10 cm and were in the one- to two-leaf stage for the postemergence treatment. Treated plants and untreated controls were maintained in a greenhouse for approximately 10 days, after which time all treated plants were compared to untreated controls and visually evaluated for injury. Plant response ratings, summarized in Table A, are based on a 0 to 100 scale where 0 is no effect and 100 is complete control. A dash (-) response means no test result.

[7] = tested on: wheat; test: Test A preemergence; type: in vivo, Triticum aestivum
Summary of the method: as §1

[8] = tested on: corn; test: Test A preemergence; type: in vivo, Zea mays; settings: Preemergence, 1000 g ai/ha; 0 to 100 scale, 0 no effect, 100 complete control
Excerpt: as §2, §3

[9] = tested on: barnyardgrass; test: Test A postemergence; type: in vivo, Echinochloa crus-galli; settings: Postemergence, 1000 g ai/ha; visual rating after approx. 10 days, 0 to 100 scale (0 no effect, 100 complete control)
Summary of the method: as §1

[10] = tested on: crabgrass, large; test: Test A postemergence; type: in vivo, Digitaria sanguinalis; settings: Postemergence, 1000 g ai/ha; visual rating after approx. 10 days, 0 to 100 scale (0 no effect, 100 complete control)
Excerpt: as §2, §3

[11] = tested on: foxtail, giant; test: Test A postemergence; type: in vivo, Setaria faberii; settings: Postemergence, 1000 g ai/ha; visual rating after approx. 10 days, 0 to 100 scale (0 no effect, 100 complete control)
Summary of the method: as §1

[12] = tested on: morningglory; test: Test A postemergence; type: in vivo, Ipomoea spp.; settings: Postemergence, 1000 g ai/ha; visual rating after approx. 10 days, 0 to 100 scale (0 no effect, 100 complete control)
Summary of the method: as §1

[13] = tested on: pigweed; test: Test A postemergence; type: in vivo, Amaranthus retroflexus; settings: Postemergence, 1000 g ai/ha; visual rating after approx. 10 days, 0 to 100 scale (0 no effect, 100 complete control)
Summary of the method: as §1

[14] = tested on: velvetleaf; test: Test A postemergence; type: in vivo, Abutilon theophrasti; settings: Postemergence, 1000 g ai/ha; visual rating after approx. 10 days, 0 to 100 scale (0 no effect, 100 complete control)
Excerpt: as §2, §3

[15] = tested on: wheat; test: Test A postemergence; type: in vivo, Triticum aestivum; settings: Postemergence, 1000 g ai/ha; visual rating after approx. 10 days, 0 to 100 scale (0 no effect, 100 complete control)
Excerpt: as §2, §3

[16] = tested on: corn; test: Test A postemergence; type: in vivo, Zea mays; settings: Postemergence, 1000 g ai/ha; visual rating after approx. 10 days, 0 to 100 scale (0 no effect, 100 complete control)
Excerpt: as §2, §3

[17] = Preemergence, 1000 g ai/ha, 0 to 100 scale, 0 no effect, 100 complete control

Compound | Barnyardgrass plant response rating [1] | Crabgrass, Large plant response rating [2] | Foxtail, Giant plant response rating [3] | Morningglory plant response rating [4] | Pigweed plant response rating [5] | Velvetleaf plant response rating [6] | Wheat plant response rating [7, 17] | Corn plant response rating [8] | Barnyardgrass plant response rating [9] | Crabgrass, Large plant response rating [10] | Foxtail, Giant plant response rating [11] | Morningglory plant response rating [12] | Pigweed plant response rating [13] | Velvetleaf plant response rating [14] | Wheat plant response rating [15] | Corn plant response rating [16] | Wheat plant response rating ([7]; preemergence, 500 g ai/ha, visual injury after approx. 10 days, 0 to 100 scale (0 no effect, 100 complete control))
CCc1cc(C(=O)NC2CC2)nn1Cc1cccc(OC(F)(F)F)c1 [Compound 26] | 80 | 100 | 100 | 90 | 100 | 100 | 40 | 40 | 70 | 90 | 100 | 100 | 100 | 100 | 50 | 70 | –
O=C(NCC(F)(F)F)c1cc(C2CC2)n(Cc2cccc(OC(F)(F)F)c2)n1 [Compound 36] | 0 | 20 | 20 | 0 | 30 | 0 | 0 | 0 | 20 | 30 | 30 | 90 | 90 | 60 | 0 | 20 | –
O=C(NC1CC1)c1cc(C2CC2)n(Cc2cccc(OC(F)(F)F)c2)n1 [Compound 37] | 0 | 40 | 30 | 0 | 20 | 0 | 0 | 0 | 10 | 20 | 10 | 80 | 100 | 70 | 20 | 30 | –
CCCNC(=O)c1cc(C2CC2)n(Cc2cccc(OC(F)(F)F)c2)n1 [Compound 38] | 0 | 20 | 0 | 0 | 0 | 0 | 0 | 0 | 10 | 10 | 10 | 100 | 40 | 50 | 0 | 30 | –
CCNC(=O)c1cc(C2CC2)n(Cc2cccc(OC(F)(F)F)c2)n1 [Compound 39] | 0 | 10 | 0 | 0 | 0 | 0 | 0 | 0 | 10 | 10 | 10 | 60 | 40 | 10 | 0 | 10 | –
C#CCNC(=O)c1cc(CC)n(Cc2cccc(C(F)(F)F)c2)n1 [Compound 41] | 10 | 30 | 50 | 20 | 10 | 0 | 0 | 0 | 10 | 20 | 20 | 100 | 30 | 10 | 10 | 20 | –
CCc1cc(C(=O)N(C)CC)nn1Cc1cccc(C(F)(F)F)c1 [Compound 42] | 0 | 40 | 30 | 30 | 10 | 0 | 0 | 0 | 20 | 50 | 30 | 60 | 60 | 40 | 0 | 30 | –
CCc1cc(C(=O)NC(C)C)nn1Cc1cccc(C(F)(F)F)c1 [Compound 47] | 80 | 100 | 100 | 90 | 80 | 60 | 50 | 40 | 60 | 70 | 80 | 100 | 70 | 60 | 40 | 40 | –
CCc1cc(C(=O)NC(C)(C)C)nn1Cc1cccc(C(F)(F)F)c1 [Compound 50] | 10 | 10 | 30 | 0 | 0 | 0 | 0 | 0 | 10 | 10 | 30 | 10 | 30 | 10 | 0 | 20 | –
C#CCNC(=O)c1cc(CC)n(Cc2cccc(OC(F)(F)F)c2)n1 [Compound 54] | 10 | 40 | 20 | 0 | 90 | 0 | 0 | 0 | 10 | 10 | 10 | 70 | 70 | 60 | 10 | 20 | –
C=CCNC(=O)c1cc(CC)n(Cc2cccc(OC(F)(F)F)c2)n1 [Compound 58] | 10 | 70 | 20 | 20 | 70 | 0 | 0 | 0 | 20 | 30 | 20 | 50 | 60 | 50 | 0 | 20 | 0
